US20230085307A1, “PYRIDAZINONE COMPOUND AND HERBICIDE” (NISSAN CHEMICAL CORPORATION, priority 2019, published 2023)

Columns and labels:
late watergrass = experiment: Test Example 1: herbicidal activity, application before weed generation under submerged conditions (Table 16, symbol A); type: in vivo, late watergrass (Echinochloa oryzicola); settings: 320 g/ha applied herbicide
Outline: (§1)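 Alluvial soil was flooded to 4 cm depth, weed seeds were sown mixed and 2.5-leaf rice seedlings were transplanted. On sowing day, the compound's emulsion, diluted in water to a set dose, was applied to the water surface. Plants grew at 25–30 °C and were scored 0–5 after three weeks.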

Japanese bulrush = experiment: Test Example 1: herbicidal activity, application before weed generation under submerged conditions (Table 16, symbol B); type: in vivo, Japanese bulrush (Schoenoplectus juncoides); settings: 320 g/ha applied herbicide
Outline: as §1

oval-leafed pondweed = experiment: Test Example 1: herbicidal activity, application before weed generation under submerged conditions (Table 16, symbol C); type: in vivo, oval-leafed pondweed (Monochoria vaginalis); settings: 320 g/ha applied herbicide
Outline: as §1

barnyard grass [1] = experiment: Test Example 3: herbicidal effect by foliage application, Wagner pot (Table 18, symbol H); type: in vivo, barnyard grass (Echinochloa crus-galli); settings: 320 g/ha
Outline: (§2)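 Plants were sown in alluvial soil held under 0.1–0.5 cm standing water and grown 14 days in a greenhouse at 25–30 °C. An emulsifiable formulation, water-diluted to the set dose, was then sprayed onto the foliage, and effects were scored three weeks later using previously defined criteria.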

Chinese sprangletop = experiment: Test Example 3: herbicidal effect by foliage application, Wagner pot (Table 18, symbol D); type: in vivo, chinese sprangletop (Leptochloa chinensis); settings: 320 g/ha
Outline: as §2

rice flat sedge = experiment: Test Example 3: herbicidal effect by foliage application, Wagner pot (Table 18, symbol E); type: in vivo, rice flat sedge (Cyperus iria); settings: 320 g/ha
Outline: as §2

southern crabgrass [2] = experiment: Test Example 4: herbicidal effect by soil treatment (Table 19, symbol F); type: in vivo, southern crabgrass (Digitaria ciliaris); settings: 320 g/ha
Outline: (§3)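 In this soil treatment, the formulated compound reached the seeds only through the soil: seeds were buried about 1.5 cm deep in sterilized diluvial soil, then the diluted emulsion was sprayed over the surface. After three weeks at 25° C. to 30° C. in a greenhouse, effects were graded on criteria from an earlier test.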

green foxtail [3] = experiment: Test Example 4: herbicidal effect by soil treatment (Table 19, symbol G); type: in vivo, green foxtail (Setaria viridis); settings: 320 g/ha
Outline: as §3

barnyard grass [4] = experiment: Test Example 4: herbicidal effect by soil treatment (Table 19, symbol H); type: in vivo, barnyard grass (Echinochloa crus-galli); settings: 320 g/ha
Outline: as §3

wild oat [5] = experiment: Test Example 4: herbicidal effect by soil treatment (Table 19, symbol I); type: in vivo, wild oat (Avena fatua); settings: 320 g/ha
Outline: as §3

blackgrass [6] = experiment: Test Example 4: herbicidal effect by soil treatment (Table 19, symbol J); type: in vivo, blackgrass (Alopecurus myosuroides); settings: 320 g/ha
Outline: as §3

Italian ryegrass [7] = experiment: Test Example 4: herbicidal effect by soil treatment (Table 19, symbol K); type: in vivo, Italian ryegrass (Lolium multiflorum); settings: 320 g/ha
Outline: as §3

windgrass [8] = experiment: Test Example 4: herbicidal effect by soil treatment (Table 19, symbol L); type: in vivo, windgrass (Apera spica-venti); settings: 320 g/ha
Outline: as §3

velvetleaf [9] = experiment: Test Example 4: herbicidal effect by soil treatment (Table 19, symbol M); type: in vivo, velvetleaf (Abutilon theophrasti); settings: 320 g/ha
Outline: as §3

redroot pigweed = experiment: Test Example 4: herbicidal effect by soil treatment (Table 19, symbol N); type: in vivo, redroot pigweed (Amaranthus retroflexus); settings: 320 g/ha
Outline: as §3

lambsquarters [10] = experiment: Test Example 4: herbicidal effect by soil treatment (Table 19, symbol O); type: in vivo, lambsquarters (Chenopodium album); settings: 320 g/ha
Outline: as §3

chickweed = experiment: Test Example 4: herbicidal effect by soil treatment (Table 19, symbol P); type: in vivo, common chickweed (Stellaria media); settings: 320 g/ha
Outline: as §3

persian speedwell [11] = experiment: Test Example 4: herbicidal effect by soil treatment (Table 19, symbol R); type: in vivo, Persian speedwell (Veronica persica); settings: 320 g/ha
Outline: as §3

southern crabgrass [12] = experiment: Test Example 5: herbicidal effect by foliage application, plastic box (Table 20, symbol F); type: in vivo, southern crabgrass (Digitaria ciliaris); settings: foliage application, 320 g/ha, 3 weeks after application
Outline: (§4)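 Plants were sown into sterilized diluvial soil under about 1.5 cm cover and kept in a greenhouse at 25° C. to 30° C. Fourteen days on, foliage received an even spray of the diluted emulsion. Herbicidal or crop effect was judged three weeks afterwards.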

green foxtail [13] = experiment: Test Example 5: herbicidal effect by foliage application, plastic box (Table 20, symbol G); type: in vivo, green foxtail (Setaria viridis); settings: foliage application, 320 g/ha, 3 weeks after application
Outline: as §4

barnyard grass [14] = experiment: Test Example 5: herbicidal effect by foliage application, plastic box (Table 20, symbol H); type: in vivo, barnyard grass (Echinochloa crus-galli); settings: foliage application, 320 g/ha, 3 weeks after application
Outline: as §4

wild oat [15] = experiment: Test Example 5: herbicidal effect by foliage application, plastic box (Table 20, symbol I); type: in vivo, wild oat (Avena fatua); settings: foliage application, 320 g/ha, 3 weeks after application
Outline: as §4

blackgrass [16] = experiment: Test Example 5: herbicidal effect by foliage application, plastic box (Table 20, symbol J); type: in vivo, blackgrass (Alopecurus myosuroides); settings: foliage application, 320 g/ha, 3 weeks after application
Outline: as §4

Italian ryegrass [17] = experiment: Test Example 5: herbicidal effect by foliage application, plastic box (Table 20, symbol K); type: in vivo, Italian ryegrass (Lolium multiflorum); settings: foliage application, 320 g/ha, 3 weeks after application
Outline: as §4

windgrass [18] = experiment: Test Example 5: herbicidal effect by foliage application, plastic box (Table 20, symbol L); type: in vivo, windgrass (Apera spica-venti); settings: foliage application, 320 g/ha, 3 weeks after application
Outline: as §4

velvetleaf [19] = experiment: Test Example 5: herbicidal effect by foliage application, plastic box (Table 20, symbol M); type: in vivo, velvetleaf (Abutilon theophrasti); settings: foliage application, 320 g/ha, 3 weeks after application
Outline: as §4

lambsquarters [20] = experiment: Test Example 5: herbicidal effect by foliage application, plastic box (Table 20, symbol O); type: in vivo, lambsquarters (Chenopodium album); settings: foliage application, 320 g/ha, 3 weeks after application
Outline: as §4

persian speedwell [21] = experiment: Test Example 5: herbicidal effect by foliage application, plastic box (Table 20, symbol R); type: in vivo, Persian speedwell (Veronica persica); settings: foliage application, 320 g/ha, 3 weeks after application
Outline: as §4

Row | SMILES | Herbicidal effect on A: late watergrass (grade 0-5) (late watergrass) | Herbicidal effect on B: Japanese bulrush (grade 0-5) (Japanese bulrush) | Herbicidal effect on C: oval-leafed pondweed (grade 0-5) (oval-leafed pondweed) | herbicidal effect on H (barnyard grass), rating 0-5 (barnyard grass [1]) | herbicidal effect on D (Chinese sprangletop), rating 0-5 (Chinese sprangletop) | herbicidal effect on E (rice flat sedge), rating 0-5 (rice flat sedge) | herbicidal effect rating, F: southern crabgrass (southern crabgrass [2]) | herbicidal effect rating, G: green foxtail (green foxtail [3]) | herbicidal effect rating, H: barnyard grass (barnyard grass [4]) | herbicidal effect rating, I: wild oat (wild oat [5]) | herbicidal effect rating, J: blackgrass (blackgrass [6]) | herbicidal effect rating, K: Italian ryegrass (Italian ryegrass [7]) | herbicidal effect rating, L: windgrass (windgrass [8]) | herbicidal effect rating, M: velvetleaf (velvetleaf [9]) | herbicidal effect rating, N: redroot pigweed (redroot pigweed) | herbicidal effect rating, O: lambsquarters (lambsquarters [10]) | herbicidal effect rating, P: chickweed (chickweed) | herbicidal effect rating, R: persian speedwell (persian speedwell [11]) | effect on southern crabgrass (F) (southern crabgrass [12]) | effect on green foxtail (G) (green foxtail [13]) | also measured
1 | CCOC(=O)Oc1c(C)nn(C)c(=O)c1-c1c(-c2ccc(F)cc2)sc2ccc(F)cc12 [2-004] | 0 (Herbicidal rate of 5% or less (almost no effect)) | 2 (Herbicidal rate of 20% or more and less than 40%) | 2 (Herbicidal rate of 20% or more and less than 40%) | 5 (Herbicidal rate of 90% or more (almost completely withered)) | 3 (Herbicidal rate of 40% or more and less than 70%) | 4 (Herbicidal rate of 70% or more and less than 90%) | 4 (Herbicidal rate of 70% or more and less than 90%) | 5 (Herbicidal rate of 90% or more (almost completely withered)) | 4 (Herbicidal rate of 70% or more and less than 90%) | 0 (Herbicidal rate of 5% or less (almost no effect)) | 0 (Herbicidal rate of 5% or less (almost no effect)) | 5 (Herbicidal rate of 90% or more (almost completely withered)) | 0 (Herbicidal rate of 5% or less (almost no effect)) | 3 (Herbicidal rate of 40% or more and less than 70%) | 5 (Herbicidal rate of 90% or more (almost completely withered)) | 5 (Herbicidal rate of 90% or more (almost completely withered)) | 5 (Herbicidal rate of 90% or more (almost completely withered)) | 1 (Herbicidal rate of 5% or more and less than 20%) | 4 (Herbicidal rate of 70% or more and less than 90%) | 5 (Herbicidal rate of 90% or more (almost completely withered)) | effect on barnyard grass (H) (barnyard grass [14]): 4 (Herbicidal rate of 70% or more and less than 90%); effect on wild oat (I) (wild oat [15]): 0 (Herbicidal rate of 5% or less (almost no effect)); effect on blackgrass (J) (blackgrass [16]): 4 (Herbicidal rate of 70% or more and less than 90%); effect on Italian ryegrass (K) (Italian ryegrass [17]): 5 (Herbicidal rate of 90% or more (almost completely withered)); effect on windgrass (L) (windgrass [18]): 3 (Herbicidal rate of 40% or more and less than 70%); effect on velvetleaf (M) (velvetleaf [19]): 5 (Herbicidal rate of 90% or more (almost completely withered)); effect on lambsquarters (O) (lambsquarters [20]): 3 (Herbicidal rate of 40% or more and less than 70%); effect on persian speedwell (R) (persian speedwell [21]): 5 (Herbicidal rate of 90% or more (almost completely withered))
2 | Cc1nn(C)c(=O)c(-c2c(-c3ccc(F)cc3)sc3ccc(F)cc23)c1OC(=O)c1ccccc1Cl [2-005] | 0 (Herbicidal rate of 5% or less (almost no effect)) | 2 (Herbicidal rate of 20% or more and less than 40%) | 2 (Herbicidal rate of 20% or more and less than 40%) | 5 (Herbicidal rate of 90% or more (almost completely withered)) | 3 (Herbicidal rate of 40% or more and less than 70%) | 5 (Herbicidal rate of 90% or more (almost completely withered)) | 5 (Herbicidal rate of 90% or more (almost completely withered)) | 5 (Herbicidal rate of 90% or more (almost completely withered)) | 4 (Herbicidal rate of 70% or more and less than 90%) | 0 (Herbicidal rate of 5% or less (almost no effect)) | 0 (Herbicidal rate of 5% or less (almost no effect)) | 4 (Herbicidal rate of 70% or more and less than 90%) | 0 (Herbicidal rate of 5% or less (almost no effect)) | 4 (Herbicidal rate of 70% or more and less than 90%) | 4 (Herbicidal rate of 70% or more and less than 90%) | 4 (Herbicidal rate of 70% or more and less than 90%) | 4 (Herbicidal rate of 70% or more and less than 90%) | 3 (Herbicidal rate of 40% or more and less than 70%) | 5 (Herbicidal rate of 90% or more (almost completely withered)) | 5 (Herbicidal rate of 90% or more (almost completely withered)) | effect on barnyard grass (H) (barnyard grass [14]): 4 (Herbicidal rate of 70% or more and less than 90%); effect on wild oat (I) (wild oat [15]): 0 (Herbicidal rate of 5% or less (almost no effect)); effect on blackgrass (J) (blackgrass [16]): 3 (Herbicidal rate of 40% or more and less than 70%); effect on Italian ryegrass (K) (Italian ryegrass [17]): 4 (Herbicidal rate of 70% or more and less than 90%); effect on windgrass (L) (windgrass [18]): 0 (Herbicidal rate of 5% or less (almost no effect)); effect on velvetleaf (M) (velvetleaf [19]): 4 (Herbicidal rate of 70% or more and less than 90%); effect on lambsquarters (O) (lambsquarters [20]): 3 (Herbicidal rate of 40% or more and less than 70%); effect on persian speedwell (R) (persian speedwell [21]): 4 (Herbicidal rate of 70% or more and less than 90%)
